Values joined by “and” are separate entries in the source; they are usually repeats but may differ in a detail not shown here. Equal values may be shown once. Read-outs that look alike come from different tables or passages of the source.
Assays:
[1] = CSF DB829 concentrations in infected vervet monkeys; assay type: in vivo, vervet monkey; details: for concentration at 1 h: 5 mg/kg/day, read-out: geometric mean CSF DB829 concentration
Description: (§1) Parasitaemia post-infection was monitored daily, using ear-prick capillary blood, through the completion of DB868 and DB829 treatment. […] At 300 days post-LDD, monkeys were considered cured if they remained normal clinically and parasite-free in the blood and CSF. Pharmacokinetic outcomes were monitored for a minimum of 60 days post-LDD as described previously. […] Monkeys that relapsed, characterized by trypanosome recrudescence in the blood or CSF, were rescue-treated with melarsoprol.
Plasma samples were processed for quantification of DB868 and DB829 by high performance liquid chromatography-tandem mass spectrometry (HPLC-MS/MS) as described previously. CSF samples were processed in a manner similar to that of plasma samples.

[2] = Tolerability of dose regimens in infected vervet monkeys; assay type: in vivo, vervet monkey; details: all IM DB829 and oral DB868 dose regimens
Description: Parasitaemia post-infection was monitored daily, using ear-prick capillary blood, through the completion of DB868 and DB829 treatment. Following the last drug dose (LDD), blood and CSF samples were examined for trypanosomes at 1, 4, 7, and 14 days to determine the end of treatment (EoT) response; monkeys which were positive for trypanosomes in either blood or CSF at the end of this 14-day period were classified as treatment failures/not cured while those that were free of trypanosomes were classified as provisionally cured. After the 14-day EoT evaluations, parasitaemia examinations were continued twice weekly to ≥ 300 days post-LDD as described previously. Additionally, physical examinations and haematological assessments were carried out once weekly up to 28 days post-LDD, once every two weeks between 28 and 100 days post-LDD, and monthly thereafter until the end of the study as described previously. At 300 days post-LDD, monkeys were considered cured if they remained normal clinically and parasite-free in the blood and CSF. Pharmacokinetic outcomes were monitored for a minimum of 60 days post-LDD as described previously. To facilitate the collection of blood and CSF for these assessments, the monkeys were anaesthetised with an IM injection of ketamine HCl (10–15 mg/kg) and diazepam (0.5 mg/kg). […]

[3] = test system: T. b. rhodesiense KETRI 2537; test: Efficacy in KETRI vervet monkey model of second stage HAT; assay type: in vivo
Description: The current study used the KETRI vervet monkey model of HAT, a model developed over 30 years ago through the experimental infection of vervet monkeys with T. b. rhodesiense. […] Trypanosomes were identified in peripheral blood first and cerebrospinal fluid (CSF) second, allowing the disease to be classified into an early (haemo-lymphatic) and a late (central nervous system [CNS]) stage, similar to the human disease. […] Monkey trypanosomal infections have been determined to be invariably fatal without therapeutic intervention, a characteristic also widely accepted as true for human sleeping sickness.
Parasitaemia and CSF parasitosis were monitored using established techniques for blood trypanosomes and CSF trypanosomes, respectively.
Due to a regulated freeze on acquisitions of new non-human primates, only six monkeys were available for the IM DB829 study. These animals were divided into three treatment groups, each consisting of one male and one female, to compare dose-responsiveness between consecutive- and alternate-day dosing. Monkeys were treated with 2.5 or 5 mg/kg/day for 5 consecutive days or with 5 mg/kg/day on alternating days for a total of 5 doses (Table 1).
Twelve additional monkeys were available for the oral DB868 efficacy study. These animals were, before infection, divided into three groups, each consisting of two males and two females. DB868 was administered orally to each group at 3, 10 or 20 mg/kg/day for 10 consecutive days (Table 2).
as §1

[4] = test system: T. b. rhodesiense STIB900; set-up: method as in PMID 19620327; details: read-out: in vitro IC50; cited from earlier work
[5] = test system: T. b. brucei GVR35; set-up: method as in PMID 19620327; details: cited from earlier work
[6] = IM 2.5mg/kg × 5 days, monkeys 546M, 693F
[7] = IM 5 mg/kg × 5 alternate days, monkeys 668M, 676F
[8] = IM 5 mg/kg × 5 days, monkeys 569F, 659M

With N=C(N)c1ccc(-c2ccc(-c3ccc(C(=N)N)cn3)o2)nc1 [DB829, 2,5-bis(5-amidino-2-pyridyl)furan] the “CSF DB829 concentration” value ([1]; IM 2.5 mg/kg/day consecutive-day dose group, limit of quantification 5 nmol/L) was < 5 nmol/L, the “geometric mean CSF DB829 concentration” value ([1]; IM 5 mg/kg/day alternate-day dose group, 1 h post-LDD) was ~7.3 nmol/L and the “CSF DB829 concentration” value ([1]; IM 5 mg/kg/day consecutive-day dose group, by 28 days post-LDD) was “below the limit of quantification”. The “time DB829 CSF concentrations maintained above 5 nmol/L” value ([1]; IM 5 mg/kg/day regimens) was 2–28 days post-LDD, the concentration at 1 h ([1]; monkey, CSF, intramuscular, IM 5 mg/kg/day alternate-day dose group, 1 h post-LDD) was 7.3 nM and the concentration at 1 h ([1]; monkey, CSF, intramuscular, IM 5 mg/kg/day consecutive-day dose group, 1 h post-LDD) was 14 nM. The Kp at 1 h ([1]; monkey, CSF, intramuscular, IM 5 mg/kg/day, either regimen, 1 h post-LDD, read-out: CSF concentration as share of total (bound + unbound) plasma concentration) was ~0.001, the “CSF DB829 concentration” value ([1]; monkeys treated with oral DB868) was “not quantifiable” and the “tolerability of dose regimens” value [2] was “well tolerated”. For the same compound, the Cured/treated ([3]; IM 2.5mg/kg × 5 days) was 2/2, the “Final efficacy assessment at 300 days post-LDD of DB829” value [3, 6] was “Cured” and the “Provisional efficacy at 100 days post-LDD of DB829” value [3, 6] was “Cured”. For the same compound, the “Trypanosomes at EoT” value [3, 6] was “Neg”, the Cured/treated ([3]; IM 5 mg/kg × 5 alternate days) was 2/2 and the “Final efficacy assessment at 300 days post-LDD of DB829” value [3, 7] was “Cured”. For the same compound, the “Provisional efficacy at 100 days post-LDD of DB829” value [3, 7] was “Cured”, the “Trypanosomes at EoT” value [3, 7] was “Neg” and the Cured/treated ([3]; IM 5 mg/kg × 5 days) was 1/1. The “Time to initial clearance of trypanosomes from body fluids (blood and CSF)” value (shortened to “Time to initial clearance”) ([3]; IM 5 mg/kg × 5 days, alternate-day dosing (28, 30, 30, 32, 34 and 36 DPI), monkeys 668M, 676F) was 1 days post-LDD, the “Time to initial clearance” value ([3]; IM 5mg/kg × 5 days, consecutive-day dosing 28–32 DPI, monkeys 569F, 659M) was 1 days post-LDD and the “Final efficacy assessment at 300 days post-LDD of DB829” value ([3]; IM 5 mg/kg × 5 days, monkey 569F (659M withdrawn)) was “Cured”. The “Provisional efficacy at 100 days post-LDD of DB829” value [3, 8] was “Cured”, the “Trypanosomes at EoT” value [3, 8] was “Neg” and the “Time to initial clearance” value ([3]; IM, monkeys 546M, 693F, Table 3 prints 5mg/kg × 5 days, consecutive-day dosing 28–32 DPI (text: 2.5 mg/kg/day)) was 4 days post-LDD and 7 days post-LDD. The “Final efficacy assessment at 300 days post-LDD of DB829, Overall Results (final combined cure rate)” value ([3]; all IM DB829 regimens combined) was “cured all monkeys and 5/5”, the “Provisional efficacy at 100 days post-LDD of DB829, Overall Results” value ([3]; all IM DB829 regimens combined) was 6/6 and the “Trypanosomes at EoT, Overall Results (provisional cure rate)” value ([3]; all IM DB829 regimens combined) was 6/6. For the same compound, the IC50 [4] was 14 nM and the “efficacy in the murine model of second stage HAT” value [5] was “fully curative”.

— article PMC4318582, “Chemotherapy of Second Stage Human African Trypanosomiasis: Comparison between the Parenteral Diamidine DB829 and Its Oral Prodrug DB868 in Vervet Monkeys” (PLoS Neglected Tropical Diseases, 2015)
